pIC50: −log10 of the molar value.
Test system: 857933-349-R-J2-PDC complex spheroid viability
Experiment: Anticancer human tumor 857933-349-R-J2-PDC patient-derived colon adenocarcinoma cell line growth inhibition [POLQ]
Conditions: for pIC50: curve of first compound; for viability, T/C: stronger effect = lower value
Outline: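 Patient-derived tumour cells were co-cultured with HUVEC and mesenchymal stem cells as multicellular spheroids at 37 °C. They were treated with POLQ inhibitors (novobiocin, ART-558, RP6685) alone or combined with other agents. Top concentrations were at or near clinical Cmax (otherwise 10 microM; SN-38 at 1 microM), decreasing in half-log steps.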

[1] = second compound 0.0316 µM, first compound 0.0316 µM
[2] = second compound 0.0316 µM, first compound 0.1 µM
[3] = second compound 0.0316 µM, first compound 0.316 µM
[4] = second compound 0.0316 µM, first compound 1 µM
[5] = second compound 0.0316 µM, first compound 3.16 µM
[6] = second compound 0.0316 µM, first compound 10 µM
[7] = second compound 0.1 µM, first compound 0.0316 µM
[8] = second compound 0.1 µM, first compound 0.1 µM
[9] = second compound 0.1 µM, first compound 0.316 µM
[10] = second compound 0.1 µM, first compound 1 µM
[11] = second compound 0.1 µM, first compound 3.16 µM
[12] = second compound 0.1 µM, first compound 10 µM
[13] = second compound 0.316 µM, first compound 0.0316 µM
[14] = second compound 0.316 µM, first compound 0.1 µM
[15] = second compound 0.316 µM, first compound 0.316 µM
[16] = second compound 0.316 µM, first compound 1 µM
[17] = second compound 0.316 µM, first compound 3.16 µM
[18] = second compound 0.316 µM, first compound 10 µM
[19] = second compound 1 µM, first compound 0.0316 µM
[20] = second compound 1 µM, first compound 0.1 µM
[21] = second compound 1 µM, first compound 0.316 µM
[22] = second compound 1 µM, first compound 1 µM
[23] = second compound 1 µM, first compound 3.16 µM
[24] = second compound 1 µM, first compound 10 µM
[25] = second compound 3.16 µM, first compound 0.0316 µM
[26] = second compound 3.16 µM, first compound 0.1 µM
[27] = second compound 3.16 µM, first compound 0.316 µM
[28] = second compound 3.16 µM, first compound 1 µM
[29] = second compound 3.16 µM, first compound 3.16 µM
[30] = second compound 3.16 µM, first compound 10 µM
[31] = second compound 10 µM, first compound 0.0316 µM
[32] = second compound 10 µM, first compound 0.1 µM
[33] = second compound 10 µM, first compound 0.316 µM
[34] = second compound 10 µM, first compound 1 µM
[35] = second compound 10 µM, first compound 3.16 µM
[36] = second compound 10 µM, first compound 10 µM
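Also: spheroids exposed to compounds for seven days before readout.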

SMILES: CCc1cc2c(N3CCc4c(cc(Cn5ccnc5)cc4-c4cn(C)nc4C(F)(F)F)C3=O)cc(C)nc2c(OC)n1 + COC1C(OC(N)=O)C(O)C(Oc2ccc3c(O)c(NC(=O)c4ccc(O)c(CC=C(C)C)c4)c(=O)oc3c2C)OC1(C)C
- pIC50 (second compound 0.0316 µM): < 5.00
- pIC50 (second compound 0.1 µM): < 5.00
- pIC50 (second compound 0.316 µM): < 5.00
- pIC50 (second compound 1 µM): < 5.00
- pIC50 (second compound 3.16 µM): < 5.00
- pIC50 (second compound 10 µM): < 5.00
- viability, T/C [1]: 116%
- viability, T/C [2]: 80.3%
- viability, T/C [3]: 72.3%
- viability, T/C [4]: 61.8%
- viability, T/C [5]: 68.5%
- viability, T/C [6]: 56.2%
- viability, T/C [7]: 97.5%
- viability, T/C [8]: 77.6%
- viability, T/C [9]: 95.5%
- viability, T/C [10]: 58.6%
- viability, T/C [11]: 68.2%
- viability, T/C [12]: 52.9%
- viability, T/C [13]: 117%
- viability, T/C [14]: 88.3%
- viability, T/C [15]: 75.3%
- viability, T/C [16]: 61.7%
- viability, T/C [17]: 82.9%
- viability, T/C [18]: 67.5%
- viability, T/C [19]: 102%
- viability, T/C [20]: 95.3%
- viability, T/C [21]: 78.8%
- viability, T/C [22]: 60.2%
- viability, T/C [23]: 52.8%
- viability, T/C [24]: 57.7%
- viability, T/C [25]: 77.7%
- viability, T/C [26]: 76.1%
- viability, T/C [27]: 89.7%
- viability, T/C [28]: 80.1%
- viability, T/C [29]: 57.5%
- viability, T/C [30]: 68.3%
- viability, T/C [31]: 71.3%
- viability, T/C [32]: 86.3%
- viability, T/C [33]: 72.7%
- viability, T/C [34]: 71.3%
- viability, T/C [35]: 91.8%
- viability, T/C [36]: 58%

SMILES: COc1cccc2c1C(=O)c1c(O)c3c(c(O)c1C2=O)CC(O)(C(=O)CO)CC3OC1CC(N)C(O)C(C)O1 (stereo not drawn) + Cc1cccc(N(C)C(=O)C2C(O)CCN2c2nc(C)cc(C(F)(F)F)c2C#N)c1
- pIC50 (second compound 0.0316 µM): 6.66
- pIC50 (second compound 0.1 µM): 6.50
- pIC50 (second compound 0.316 µM): 6.52
- pIC50 (second compound 1 µM): 6.71
- pIC50 (second compound 3.16 µM): 6.70
- pIC50 (second compound 10 µM): 6.75
- viability, T/C [1]: 86.9%
- viability, T/C [2]: 62.2%
- viability, T/C [3]: 47.1%
- viability, T/C [4]: 17%
- viability, T/C [5]: 0.52%
- viability, T/C [6]: 0.28%
- viability, T/C [7]: 76.9%
- viability, T/C [8]: 79.5%
- viability, T/C [9]: 48.4%
- viability, T/C [10]: 12.9%
- viability, T/C [11]: 0.41%
- viability, T/C [12]: 0.35%
- viability, T/C [13]: 70.4%
- viability, T/C [14]: 79.1%
- viability, T/C [15]: 46.7%
- viability, T/C [16]: 14%
- viability, T/C [17]: 0.45%
- viability, T/C [18]: 0.46%
- viability, T/C [19]: 74.1%
- viability, T/C [20]: 60.1%
- viability, T/C [21]: 42.3%
- viability, T/C [22]: 6.42%
- viability, T/C [23]: 0.28%
- viability, T/C [24]: 0.34%
- viability, T/C [25]: 86.2%
- viability, T/C [26]: 66.4%
- viability, T/C [27]: 40.2%
- viability, T/C [28]: 7.89%
- viability, T/C [29]: 0.38%
- viability, T/C [30]: 0.47%
- viability, T/C [31]: 65.9%
- viability, T/C [32]: 64.1%
- viability, T/C [33]: 35.7%
- viability, T/C [34]: 4.82%
- viability, T/C [35]: 0.36%
- viability, T/C [36]: 0.46%

SMILES: C=CC(=O)N1CCN(c2nc(=O)n(-c3c(C)ccnc3C(C)C)c3nc(-c4c(O)cccc4F)c(F)cc23)C(C)C1 (stereo not drawn) + COC1C(OC(N)=O)C(O)C(Oc2ccc3c(O)c(NC(=O)c4ccc(O)c(CC=C(C)C)c4)c(=O)oc3c2C)OC1(C)C
- pIC50 (second compound 0.0316 µM): < 5.00
- pIC50 (second compound 0.1 µM): < 5.00
- pIC50 (second compound 0.316 µM): < 5.00
- pIC50 (second compound 1 µM): < 5.00
- pIC50 (second compound 3.16 µM): < 5.00
- pIC50 (second compound 10 µM): < 5.00
- viability, T/C [1]: 105%
- viability, T/C [2]: 104%
- viability, T/C [3]: 103%
- viability, T/C [4]: 107%
- viability, T/C [5]: 88.5%
- viability, T/C [6]: 102%
- viability, T/C [7]: 94.4%
- viability, T/C [8]: 88.7%
- viability, T/C [9]: 79.5%
- viability, T/C [10]: 110%
- viability, T/C [11]: 104%
- viability, T/C [12]: 77%
- viability, T/C [13]: 96.1%
- viability, T/C [14]: 110%
- viability, T/C [15]: 102%
- viability, T/C [16]: 98.2%
- viability, T/C [17]: 100%
- viability, T/C [18]: 74.9%
- viability, T/C [19]: 101%
- viability, T/C [20]: 108%
- viability, T/C [21]: 81.3%
- viability, T/C [22]: 109%
- viability, T/C [23]: 99.2%
- viability, T/C [24]: 93.3%
- viability, T/C [25]: 98.1%
- viability, T/C [26]: 116%
- viability, T/C [27]: 126%
- viability, T/C [28]: 99.3%
- viability, T/C [29]: 111%
- viability, T/C [30]: 71.4%
- viability, T/C [31]: 104%
- viability, T/C [32]: 73%
- viability, T/C [33]: 118%
- viability, T/C [34]: 97.4%
- viability, T/C [35]: 82.2%
- viability, T/C [36]: 99.8%

SMILES: COc1ccc([C@@H](O)c2cc(-c3ncnc4cc(N5CCOCC5)ccc34)c(F)cc2Cl)nn1 + Nc1ccc(C#CCN(C(=O)Cc2ncc(C(F)(F)F)cc2C(F)(F)F)c2ccc(F)cc2)nn1
- pIC50 (second compound 0.0316 µM): < 5.00
- pIC50 (second compound 0.1 µM): < 5.00
- pIC50 (second compound 0.316 µM): 5.01
- pIC50 (second compound 1 µM): < 5.00
- pIC50 (second compound 3.16 µM): < 5.00
- pIC50 (second compound 10 µM): < 5.00
- viability, T/C [1]: 86.3%
- viability, T/C [2]: 104%
- viability, T/C [3]: 103%
- viability, T/C [4]: 92.6%
- viability, T/C [5]: 77.2%
- viability, T/C [6]: 56.2%
- viability, T/C [7]: 91.4%
- viability, T/C [8]: 100%
- viability, T/C [9]: 96.8%
- viability, T/C [10]: 84.3%
- viability, T/C [11]: 78.6%
- viability, T/C [12]: 60.8%
- viability, T/C [13]: 84.6%
- viability, T/C [14]: 91.2%
- viability, T/C [15]: 81.2%
- viability, T/C [16]: 94.7%
- viability, T/C [17]: 80.7%
- viability, T/C [18]: 48.7%
- viability, T/C [19]: 96.8%
- viability, T/C [20]: 89.3%
- viability, T/C [21]: 93.4%
- viability, T/C [22]: 76.6%
- viability, T/C [23]: 84.5%
- viability, T/C [24]: 59.6%
- viability, T/C [25]: 88.2%
- viability, T/C [26]: 95.8%
- viability, T/C [27]: 86.5%
- viability, T/C [28]: 84.1%
- viability, T/C [29]: 75.3%
- viability, T/C [30]: 60%
- viability, T/C [31]: 99.9%
- viability, T/C [32]: 89.8%
- viability, T/C [33]: 95.3%
- viability, T/C [34]: 76.3%
- viability, T/C [35]: 76.8%
- viability, T/C [36]: 51.6%
